Reference: patent US20240116985A1, “STAPLED PEPTIDES AND METHODS THEREOF” (priority 2020, published 2024)
Converted amounts (≈) assume the structure as drawn. Read-outs that look alike come from different tables or passages of the source.

Columns and labels:
[1] = biological target: T1, full-length beta-Catenin (Uniprot ID P35222) (Homo sapiens, UniProt P35222); assay: Fluorescence polarization IC50 (beta-catenin / 5FAM-TCF4 10-53 competition); type: binding
T1 construct: 10 nM full-length beta-Catenin (Uniprot ID P35222)
T1 sequence (P35222 1-781): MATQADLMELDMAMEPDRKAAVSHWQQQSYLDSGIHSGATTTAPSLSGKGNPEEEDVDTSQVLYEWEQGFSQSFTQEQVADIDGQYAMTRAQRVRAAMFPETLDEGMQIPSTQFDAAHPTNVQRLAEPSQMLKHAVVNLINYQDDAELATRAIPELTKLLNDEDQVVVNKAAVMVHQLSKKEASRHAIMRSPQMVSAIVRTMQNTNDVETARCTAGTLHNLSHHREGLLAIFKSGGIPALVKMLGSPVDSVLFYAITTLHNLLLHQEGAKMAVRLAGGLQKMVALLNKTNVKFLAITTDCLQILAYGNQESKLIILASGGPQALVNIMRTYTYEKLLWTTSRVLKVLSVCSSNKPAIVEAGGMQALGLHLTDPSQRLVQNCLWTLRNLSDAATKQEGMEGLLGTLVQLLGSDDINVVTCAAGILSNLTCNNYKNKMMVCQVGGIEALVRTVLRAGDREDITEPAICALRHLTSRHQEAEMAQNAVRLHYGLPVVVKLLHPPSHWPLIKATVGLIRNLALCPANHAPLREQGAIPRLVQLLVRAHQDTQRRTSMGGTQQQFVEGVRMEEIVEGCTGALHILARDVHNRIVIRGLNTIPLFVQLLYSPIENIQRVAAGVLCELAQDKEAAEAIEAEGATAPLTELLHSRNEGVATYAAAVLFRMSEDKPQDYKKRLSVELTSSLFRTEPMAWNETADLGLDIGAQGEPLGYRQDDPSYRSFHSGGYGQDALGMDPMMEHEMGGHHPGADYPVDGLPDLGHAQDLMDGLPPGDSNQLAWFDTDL

CHI Log D procedure = type: physicochemical; settings: for chromatographic logD: pH 7.4, CHI Log D; for CHI Log D: pH 7.4
Solubility in PBS = type: physicochemical
Summary of the method: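 HPLC quantitation of peptide remaining in the PBS supernatant after ultracentrifugation, referenced to a 50 μM solution in DMSO.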

[2] = biological target: T2, beta-catenin/TCF4 engagement (Homo sapiens, UniProt P35222); assay: Nano-BRET target engagement assay (B-cat-Halo & TCF4-Luc in HEK293 cells); type: cell-based; settings: for IC50: read-out: NanoBRET Abs IC50; for inhibition at 10 µM: HEK293, 10 uM, read-out: NanoBRET % inh @ 10 uM
T2 construct: expressed in transfected cells; host or cells: HEK293
T2 sequence (P35222 1-781): T1 sequence (P35222 1-781)

[3] = fluorescence polarization, beta-catenin, read-out: FP EC50

IC50 ([1]; read-out: beta-Catenin FP IC50) | chromatographic logD (CHI Log D procedure) | Solubility (Solubility in PBS; Solubility (uM)) | IC50 [2] | IC50 [1, 3] | CHI Log D (CHI Log D procedure) | Solubility (Solubility in PBS) | inhibition at 10 µM [2] | IC50 ([2]; absolute IC50) | Structure (SMILES)
7 nM | 2.06 | 36 µM (≈ 71.1 µg/mL) | 14700 nM |  |  |  |  |  | CC(=O)N1CCC[C@]12CC=CCCCC1(CCCC=CCCCOC(=O)N3CC[C@@](C(=O)N[C@@H](Cc4ccsc4)C(=O)N[C@@H](Cc4csc5ccccc45)C(=O)N[C@@H](CC(N)=O)C(=O)N[C@H](C)C(N)=O)(C3)NC(=O)[C@H](CC(N)=O)NC(=O)[C@H](Cc3ccccc3)NC(=O)[C@H](C)NC(=O)[C@H](C)NC(=O)[C@H](CC(=O)O)NC(=O)[C@H](CC(=O)O)NC1=O)NC(=O)[C@H](CC(C)(C)C)NC(=O)[C@H](CC(=O)O)NC2=O (stereo partly drawn) [I-824, Ac-PL3-Asp-Npg-B5-Asp-Asp-Ala-Ala-Phe-Asn-PyrS2-3Thi-BztA-Asn-dAla-NH2]
15 nM |  |  | 22700 nM | 15 nM | 2.066 | 30 µM (≈ 60.1 µg/mL) |  |  | CC(=O)N1CCC[C@]12CC=CCCCC1(CCCC=CCCCCOC(=O)N3CC[C@@](C(=O)N[C@@H](Cc4ccsc4)C(=O)N[C@@H](Cc4csc5ccccc45)C(=O)N[C@@H](CCC(N)=O)C(=O)N[C@@H](C)C(N)=O)(C3)NC(=O)[C@H](CC(N)=O)NC(=O)[C@H](Cc3ccccc3)NC(=O)[C@H](C)NC(=O)[C@H](C)NC(=O)[C@H](CC(=O)O)NC(=O)[C@H](CC(=O)O)NC1=O)NC(=O)[C@H](CC(C)(C)C)NC(=O)[C@H](CC(=O)O)NC2=O (stereo partly drawn) [I-826, Ac-PL3-Asp-Npg-B5-Asp-Asp-Ala-Ala-Phe-Asn-PyrS3-3Thi-BztA-Gln-Ala-NH2]
15 nM | 2.08 | 34 µM (≈ 67.6 µg/mL) | 30200 nM |  |  |  |  |  | CC(=O)N1CCC[C@]12CC=CCCCC1(CCCC=CCCCCOC(=O)N3CC[C@@](C(=O)N[C@@H](Cc4ccsc4)C(=O)N[C@@H](Cc4csc5ccccc45)C(=O)N[C@@H](CC(N)=O)C(=O)N[C@@H](C)C(N)=O)(C3)NC(=O)[C@H](CC(N)=O)NC(=O)[C@H](Cc3ccccc3)NC(=O)[C@H](C)NC(=O)[C@H](C)NC(=O)[C@H](CC(=O)O)NC(=O)[C@H](CC(=O)O)NC1=O)NC(=O)[C@H](CC(C)(C)C)NC(=O)[C@H](CC(=O)O)NC2=O (stereo partly drawn) [I-829, Ac-PL3-Asp-Npg-B5-Asp-Asp-Ala-Ala-Phe-Asn-PyrS3-3Thi-BztA-Asn-Ala-NH2]
11 nM |  |  | 25600 nM | 11 nM | 2.075 | 50 µM (≈ 100 µg/mL) | 32.4% |  | CC(=O)N1CCC[C@]12CC=CCCCC1(CCCC=CCCCCOC(=O)N3CC[C@@](C(=O)N[C@@H](Cc4ccsc4)C(=O)N[C@@H](Cc4csc5ccccc45)C(=O)N[C@@H](CCC(N)=O)C(=O)N[C@H](C)C(N)=O)(C3)NC(=O)[C@H](CC(N)=O)NC(=O)[C@H](Cc3ccccc3)NC(=O)[C@H](C)NC(=O)[C@H](C)NC(=O)[C@H](CC(=O)O)NC(=O)[C@H](CC(=O)O)NC1=O)NC(=O)[C@H](CC(C)(C)C)NC(=O)[C@H](CC(=O)O)NC2=O (stereo partly drawn) [I-831, Ac-PL3-Asp-Npg-B5-Asp-Asp-Ala-Ala-Phe-Asn-PyrS3-3Thi-BztA-Gln-dAla-NH2]
8 nM |  |  | 48100 nM | 8 nM | 2.146 | 50 µM (≈ 101 µg/mL) |  |  | CC(=O)N1CCC[C@]12CC=CCCCC1(CCCC=CCCCCOC(=O)N3CC[C@@](C(=O)N[C@@H](Cc4ccsc4)C(=O)N[C@@H](Cc4csc5ccccc45)C(=O)N[C@@H](Cc4c[nH]cn4)C(=O)N[C@H](C)C(N)=O)(C3)NC(=O)[C@H](CC(N)=O)NC(=O)[C@H](Cc3ccccc3)NC(=O)[C@H](C)NC(=O)[C@H](C)NC(=O)[C@H](CC(=O)O)NC(=O)[C@H](CC(=O)O)NC1=O)NC(=O)[C@H](CC(C)(C)C)NC(=O)[C@H](CC(=O)O)NC2=O (stereo partly drawn) [I-833, Ac-PL3-Asp-Npg-B5-Asp-Asp-Ala-Ala-Phe-Asn-PyrS3-3Thi-BztA-His-dAla-NH2]
11 nM |  |  | 37600 nM | 11 nM | 2.109 | 50 µM (≈ 99.5 µg/mL) | 27.6% |  | CC(=O)N1CCC[C@]12CC=CCCCC1(CCCC=CCCCCOC(=O)N3CC[C@@](C(=O)N[C@@H](Cc4ccsc4)C(=O)N[C@@H](Cc4csc5ccccc45)C(=O)N[C@@H](CC(N)=O)C(=O)N[C@H](C)C(N)=O)(C3)NC(=O)[C@H](CC(N)=O)NC(=O)[C@H](Cc3ccccc3)NC(=O)[C@H](C)NC(=O)[C@H](C)NC(=O)[C@H](CC(=O)O)NC(=O)[C@H](CC(=O)O)NC1=O)NC(=O)[C@H](CC(C)(C)C)NC(=O)[C@H](CC(=O)O)NC2=O (stereo partly drawn) [I-835, Ac-PL3-Asp-Npg-B5-Asp-Asp-Ala-Ala-Phe-Asn-PyrS3-3Thi-BztA-Asn-dAla-NH2]
11 nM | 2.22 | 41 µM (≈ 78.6 µg/mL) |  |  |  |  |  | 16900 nM | CC(=O)N1CCC[C@]12CC=CCCCC1(CCCC=CCCCOC(=O)N3CC[C@@](C(=O)N[C@@H](Cc4ccsc4)C(=O)N[C@@H](Cc4csc5ccccc45)C(=O)N[C@@H](CCC(N)=O)C(N)=O)(C3)NC(=O)[C@H](CC(N)=O)NC(=O)[C@H](Cc3ccccc3)NC(=O)[C@H](C)NC(=O)[C@H](C)NC(=O)[C@H](CC(N)=O)NC(=O)[C@H](CC(=O)O)NC1=O)NC(=O)[C@H](CC(C)(C)C)NC(=O)[C@H](CC(=O)O)NC2=O (stereo partly drawn) [I-836, Ac-PL3-Asp-Npg-B5-Asp-Asn-Ala-Ala-Phe-Asn-PyrS2-3Thi-BztA-Gln-NH2]
5 nM | 2.3 | 14 µM (≈ 27 µg/mL) |  |  |  |  |  | 23800 nM | CC(=O)N1CCC[C@]12CC=CCCCC1(CCCC=CCCCOC(=O)N3CC[C@@](C(=O)N[C@@H](Cc4ccsc4)C(=O)N[C@@H](Cc4csc5ccccc45)C(=O)N[C@@H](Cc4c[nH]cn4)C(N)=O)(C3)NC(=O)[C@H](CC(N)=O)NC(=O)[C@H](Cc3ccccc3)NC(=O)[C@H](C)NC(=O)[C@H](C)NC(=O)[C@H](CC(N)=O)NC(=O)[C@H](CC(=O)O)NC1=O)NC(=O)[C@H](CC(C)(C)C)NC(=O)[C@H](CC(=O)O)NC2=O (stereo partly drawn) [I-837, Ac-PL3-Asp-Npg-B5-Asp-Asn-Ala-Ala-Phe-Asn-PyrS2-3Thi-BztA-His-NH2]
12 nM | 2.19 | 41 µM (≈ 79.2 µg/mL) |  |  |  |  |  | 17400 nM | CC(=O)N1CCC[C@]12CC=CCCCC1(CCCC=CCCCOC(=O)N3CC[C@@](C(=O)N[C@@H](Cc4ccsc4)C(=O)N[C@@H](Cc4csc5ccccc45)C(=O)N[C@@H](CCC(N)=O)C(N)=O)(C3)NC(=O)[C@H](CC(N)=O)NC(=O)[C@H](Cc3ccccc3)NC(=O)[C@H](C)NC(=O)[C@H](C)NC(=O)[C@H](CCC(N)=O)NC(=O)[C@H](CC(=O)O)NC1=O)NC(=O)[C@H](CC(C)(C)C)NC(=O)[C@H](CC(=O)O)NC2=O (stereo partly drawn) [I-838, Ac-PL3-Asp-Npg-B5-Asp-Gln-Ala-Ala-Phe-Asn-PyrS2-3Thi-BztA-Gln-NH2]
7 nM | 2.27 | 13 µM (≈ 25.2 µg/mL) |  |  |  |  |  | 41900 nM | CC(=O)N1CCC[C@]12CC=CCCCC1(CCCC=CCCCOC(=O)N3CC[C@@](C(=O)N[C@@H](Cc4ccsc4)C(=O)N[C@@H](Cc4csc5ccccc45)C(=O)N[C@@H](Cc4c[nH]cn4)C(N)=O)(C3)NC(=O)[C@H](CC(N)=O)NC(=O)[C@H](Cc3ccccc3)NC(=O)[C@H](C)NC(=O)[C@H](C)NC(=O)[C@H](CCC(N)=O)NC(=O)[C@H](CC(=O)O)NC1=O)NC(=O)[C@H](CC(C)(C)C)NC(=O)[C@H](CC(=O)O)NC2=O (stereo partly drawn) [I-839, Ac-PL3-Asp-Npg-B5-Asp-Gln-Ala-Ala-Phe-Asn-PyrS2-3Thi-BztA-His-NH2]
16 nM | 2.19 | 32 µM (≈ 62.7 µg/mL) |  |  |  |  |  | 22300 nM | CC(=O)N1CCC[C@]12CC=CCCCC1(CCCC=CCCCOC(=O)N3CC[C@@](C(=O)N[C@@H](Cc4ccsc4)C(=O)N[C@@H](Cc4csc5ccccc45)C(=O)N[C@@H](CCC(N)=O)C(N)=O)(C3)NC(=O)[C@H](CC(N)=O)NC(=O)[C@H](Cc3ccccc3)NC(=O)[C@H](C)NC(=O)[C@H](C)NC(=O)[C@H](CCCNC(N)=O)NC(=O)[C@H](CC(=O)O)NC1=O)NC(=O)[C@H](CC(C)(C)C)NC(=O)[C@H](CC(=O)O)NC2=O (stereo partly drawn) [I-840, Ac-PL3-Asp-Npg-B5-Asp-Cit-Ala-Ala-Phe-Asn-PyrS2-3Thi-BztA-Gln-NH2]
12 nM | 2.26 | 14 µM (≈ 27.6 µg/mL) |  |  |  |  |  | 34400 nM | CC(=O)N1CCC[C@]12CC=CCCCC1(CCCC=CCCCOC(=O)N3CC[C@@](C(=O)N[C@@H](Cc4ccsc4)C(=O)N[C@@H](Cc4csc5ccccc45)C(=O)N[C@@H](Cc4c[nH]cn4)C(N)=O)(C3)NC(=O)[C@H](CC(N)=O)NC(=O)[C@H](Cc3ccccc3)NC(=O)[C@H](C)NC(=O)[C@H](C)NC(=O)[C@H](CCCNC(N)=O)NC(=O)[C@H](CC(=O)O)NC1=O)NC(=O)[C@H](CC(C)(C)C)NC(=O)[C@H](CC(=O)O)NC2=O (stereo partly drawn) [I-841, Ac-PL3-Asp-Npg-B5-Asp-Cit-Ala-Ala-Phe-Asn-PyrS2-3Thi-BztA-His-NH2]
